Reference: US20100234815A1, “STABLE MELT PROCESSABLE CHLORHEXIDINE COMPOSITIONS” (Teleflex Medical Incorporated, priority 2009, published 2010)

Key:
Assay type in all cases: physicochemical
[1] = HPLC of CHA extracted from Versaflex CL30 compounded resin; details: for 4.1 peak (CHA) / RRT 0.6 (degradant) / RRT 1.3 (degradant) / RRT 1.6 (degradant): Versaflex CL30 compounded resin
Description: (§1) Versaflex® CL30 and chlorhexidine diacetate were separately fed into an 18 mm Leistritz twin screw intermeshing extruder from K-tron feeders at rates of 2.5 kg/hr and 0.25 kg/hr, respectively. The barrel zone temperatures were set from 131° C. thru 148° C. The extrudate was pelletized into small pellets.
(§2) Chlorhexidine diacetate content of the prepared samples was extracted with 1:1 tetrahydrofuran (THF): H2O and analyzed on the Agilent Eclipse XDB-CN 5u 4.6×150 mm column with guard column. Briefly, 2 centimeter (cm) sample segments were extracted with 5 mL of THF and 5 mL of H2O, vortexed, and centrifuged. HPLC analysis was run on an Agilent Eclipse XDB-CN 5u 4.6×150 mm column and 4.6×12.5 mm Eclipse XDB-CN guard column, with a mixture of deionized water, acetonitrile, and trifluoroacetic acid as the mobile phase. Concentrations of the analytes were determined via calibration curves.

[2] = HPLC of chlorhexidine diacetate extracted from low melt temperature Tecoflex-93A compounded resin; details: for 4.289 peak (CHA) / RRT 0.6 (degradant) / RRT 1.3 (degradant) / RRT 1.6 (degradant): low melt temperature (LMT) Tecoflex-93A
Description: Low melting temperature Tecoflex-93A and chlorhexidine diacetate were separately fed into al 8 mm Leistritz twin screw intermeshing extruder from K-tron feeders at rates of 1 kg/hr and 0.1 kg/hr, respectively. The barrel zone temperatures were set at 121° C. for all zones. The extrudate was pelletized into small pellets.
as §2
(§3) In addition to the experimental conditions described with reference to FIG. 3, chlorhexidine diacetate compounded in low melt temperature Tecoflex-93A was subjected to melt temperatures ranging from about 131° C. to about 137° C. The concentration of the analytes was determined via a calibration curve as described in the following Table 2.

[3] = HPLC of CHA extracted from PVC compounded resin
Description: as §1, with “Separate samples of polyvinyl chloride (shore 65A and shore 85A respectively)” for “Versaflex® CL30”, “2.0” for “2.5”, “0.2” for “0.25”, “140°” for “131°”, “155°” for “148°”
as §2
as §3, with “7,” for “3,”, “polyvinyl chloride (Shore A hardness of […] & 85)” for “low melt temperature Tecoflex-93A”, “145°” for “131°”, “176°” for “137°”, “6.” for “2.”

[4] = HPLC of chlorhexidine diacetate extracted from Tecothane-2095A compounded resin (thermal degradation on melt processing); details: for 4.1 peak (CHA) / RRT 0.6 (degradant) / RRT 1.3 (degradant) / RRT 1.6 (degradant): Tecothane-2095A compounded resin
Text: Tecothane®-2095A was coated with 5% w/w polytetramethyleneoxide (PTMO) of molecular weight (MW)=1000 by mixing 45.1 gram (g) of PTMO with 900g Tecothane®-2095A. The PTMO coated resin and chlorhexidine diacetate were separately fed into an 18 millimeter (mm) Leistritz twin screw intermeshing extruder (Somerville, N.J.) from K-Tron feeders (Pitman, N.J.) at rates of 2.5 kilograms per hour (kg/hr) and 0.25 kg/hr, respectively. The extruder was set at 112 revolutions per minute (rpm) for screw speed and the barrel zone temperatures were set from 145° C. thru 178° C. The extrudate was pelletized into small pellets.
as §2
as §3, with “2,” for “3,”, “Tecothane 2095A” for “low melt temperature Tecoflex-93A”, “139°” for “131°”, “172°” for “137°”, “and the” for “The”, “1.” for “2.”

[5] = HPLC of CHA extracted from co-extruded 7Fr single lumen tubing
Description: […] Co-extruded tubing was also analyzed for chlorhexidine degradants.
as §2

[6] = HPLC of chlorhexidine dodecanoate extracted from LMT Tecoflex-93A compounded resin; details: for 4.289 peak (CHDD) / RRT 0.6 (degradant) / RRT 1.3 (degradant) / RRT 1.6 (degradant): LMT Tecoflex-93A compounded resin
[7] = PVC 60A compounded resin, melt temp 145 °C (condition 1)
[8] = PVC 60A compounded resin, melt temp 154 °C (condition 2)
[9] = PVC 60A compounded resin, melt temp 159 °C (condition 3)
[10] = PVC 60A compounded resin, melt temp 165 °C (condition 4)
[11] = PVC 60A compounded resin, melt temp 171 °C (condition 5)
[12] = PVC 85A compounded resin, melt temp 155 °C (condition 1)
[13] = PVC 85A compounded resin, melt temp 159 °C (condition 2)
[14] = PVC 85A compounded resin, melt temp 163 °C (condition 3)
[15] = PVC 85A compounded resin, melt temp 167 °C (condition 4)
[16] = PVC 85A compounded resin, melt temp 170 °C (condition 5)
[17] = PVC 85A compounded resin, melt temp 176 °C (condition 6)
[18] = co-extruded 7Fr single lumen, melt temp 135 °C (condition 1)

Compound: CC(=O)O.CC(=O)O.NC(=N\CCCCCC/N=C(N)/N=C(\N)Nc1ccc(Cl)cc1)/N=C(\N)Nc1ccc(Cl)cc1 [CHA, chlorhexidine diacetate]
- 4.1 peak (CHA) ([1]; melt temp 101 °C (condition 1)): 100
- RRT 0.6 (degradant) ([1]; melt temp 101 °C (condition 1)): Not detected
- RRT 1.3 (degradant) ([1]; melt temp 101 °C (condition 1)): Not detected
- RRT 1.6 (degradant) ([1]; melt temp 101 °C (condition 1)): Not detected
- 4.1 peak (CHA) ([1]; melt temp 121 °C (condition 2)): 100
- RRT 0.6 (degradant) ([1]; melt temp 121 °C (condition 2)): Not detected
- RRT 1.3 (degradant) ([1]; melt temp 121 °C (condition 2)): Not detected
- RRT 1.6 (degradant) ([1]; melt temp 121 °C (condition 2)): Not detected
- 4.1 peak (CHA) ([1]; melt temp 129 °C (condition 3)): 100
- RRT 0.6 (degradant) ([1]; melt temp 129 °C (condition 3)): Not detected
- RRT 1.3 (degradant) ([1]; melt temp 129 °C (condition 3)): Not detected
- RRT 1.6 (degradant) ([1]; melt temp 129 °C (condition 3)): Not detected
- 4.1 peak (CHA) ([1]; melt temp 139 °C (condition 4)): 100
- RRT 0.6 (degradant) ([1]; melt temp 139 °C (condition 4)): Not detected
- RRT 1.3 (degradant) ([1]; melt temp 139 °C (condition 4)): Not detected
- RRT 1.6 (degradant) ([1]; melt temp 139 °C (condition 4)): Not detected
- 4.1 peak (CHA) ([1]; melt temp 144 °C (condition 5)): 100
- RRT 0.6 (degradant) ([1]; melt temp 144 °C (condition 5)): Not detected
- RRT 1.3 (degradant) ([1]; melt temp 144 °C (condition 5)): Not detected
- RRT 1.6 (degradant) ([1]; melt temp 144 °C (condition 5)): Not detected
- 4.1 peak (CHA) ([1]; melt temp 149 °C (condition 6)): 100
- RRT 0.6 (degradant) ([1]; melt temp 149 °C (condition 6)): Not detected
- RRT 1.3 (degradant) ([1]; melt temp 149 °C (condition 6)): Not detected
- RRT 1.6 (degradant) ([1]; melt temp 149 °C (condition 6)): Not detected
- 4.1 peak (CHA) ([1]; melt temp 153 °C (condition 7)): 100
- RRT 0.6 (degradant) ([1]; melt temp 153 °C (condition 7)): Not detected
- RRT 1.3 (degradant) ([1]; melt temp 153 °C (condition 7)): Not detected
- RRT 1.6 (degradant) ([1]; melt temp 153 °C (condition 7)): Not detected
- 4.1 peak (CHA) ([1]; melt temp 161 °C (condition 8)): 100
- RRT 0.6 (degradant) ([1]; melt temp 161 °C (condition 8)): Not detected
- RRT 1.3 (degradant) ([1]; melt temp 161 °C (condition 8)): Not detected
- RRT 1.6 (degradant) ([1]; melt temp 161 °C (condition 8)): Not detected
- thermal degradation on melt processing (HPLC, FIG. 3) ([2]; compounded in low melt temperature Tecoflex-93A, melt temperature 136 °C, 280 nm): did not degrade
- 4.289 peak (CHA) ([2]; melt temp 131 °C (condition 1)): 100
- RRT 0.6 (degradant) ([2]; melt temp 131 °C (condition 1)): Not detected
- RRT 1.3 (degradant) ([2]; melt temp 131 °C (condition 1)): Not detected
- RRT 1.6 (degradant) ([2]; melt temp 131 °C (condition 1)): Not detected
- 4.289 peak (CHA) ([2]; melt temp 137 °C (condition 2)): 100
- RRT 0.6 (degradant) ([2]; melt temp 137 °C (condition 2)): Non-detected
- RRT 1.3 (degradant) ([2]; melt temp 137 °C (condition 2)): Not detected
- RRT 1.6 (degradant) ([2]; melt temp 137 °C (condition 2)): Not detected
- stable processing temperature limit ([2]; with polyurethanes): about 137 °C
- % Peak area (degradant) [3, 7]: Not detected
- % Peak area CHA [3, 7]: 100%
- % Peak area (degradant) [3, 8]: Not detected
- % Peak area CHA [3, 8]: 100%
- % Peak area (degradant) [3, 9]: Not detected
- % Peak area CHA [3, 9]: 100%
- % Peak area (degradant) [3, 10]: Not detected
- % Peak area CHA [3, 10]: 100%
- % Peak area (degradant) [3, 11]: 0.4%
- % Peak area CHA [3, 11]: 99.6%
- % Peak area (degradant) [3, 12]: Not detected
- % Peak area CHA [3, 12]: 100%
- % Peak area (degradant) [3, 13]: Not detected
- % Peak area CHA [3, 13]: 100%
- % Peak area (degradant) [3, 14]: Not detected
- % Peak area CHA [3, 14]: 100%
- % Peak area (degradant) [3, 15]: 0.4%
- % Peak area CHA [3, 15]: 99.6%
- % Peak area (degradant) [3, 16]: 0.3%
- % Peak area CHA [3, 16]: 99.7%
- % Peak area (degradant) [3, 17]: 0.7%
- % Peak area CHA [3, 17]: 99.3%
- thermal degradation on melt processing (HPLC, FIG. 5) ([3]; compounded in polyvinyl chloride (Shore A hardness of 65), melt temperature 145 °C, 280 nm): did not degrade
- thermal degradation on melt processing (HPLC, FIG. 6) ([3]; compounded in polyvinyl chloride (Shore A hardness of 85), melt temperature 155 °C, 280 nm): did not degrade
- amount of degradant generated (HPLC, FIG. 7) ([3]; compounded in polyvinyl chloride (Shore A hardness of 85), processed at 176 °C, 280 nm): less than 1%
- 4.1 peak (CHA) ([4]; melt temp 139 °C (condition 1)): 89%
- RRT 0.6 (degradant) ([4]; melt temp 139 °C (condition 1)): 3%
- RRT 1.3 (degradant) ([4]; melt temp 139 °C (condition 1)): 8%
- RRT 1.6 (degradant) ([4]; melt temp 139 °C (condition 1)): 1%
- 4.1 peak (CHA) ([4]; melt temp 142 °C (condition 2)): 88%
- RRT 0.6 (degradant) ([4]; melt temp 142 °C (condition 2)): 3%
- RRT 1.3 (degradant) ([4]; melt temp 142 °C (condition 2)): 8%
- RRT 1.6 (degradant) ([4]; melt temp 142 °C (condition 2)): 1%
- 4.1 peak (CHA) ([4]; melt temp 144 °C (condition 3)): 84%
- RRT 0.6 (degradant) ([4]; melt temp 144 °C (condition 3)): 4%
- RRT 1.3 (degradant) ([4]; melt temp 144 °C (condition 3)): 11%
- RRT 1.6 (degradant) ([4]; melt temp 144 °C (condition 3)): 1%
- 4.1 peak (CHA) ([4]; melt temp 172 °C (condition 4)): 77%
- RRT 0.6 (degradant) ([4]; melt temp 172 °C (condition 4)): 7%
- RRT 1.3 (degradant) ([4]; melt temp 172 °C (condition 4)): 13%
- RRT 1.6 (degradant) ([4]; melt temp 172 °C (condition 4)): 3%
- thermal degradation on melt processing (HPLC, FIG. 2) ([4]; compounded in Tecothane 2095A, melt temperature 164 °C, 280 nm): degrades into several products
- 4.289 peak (CHA) [5, 18]: 100
- RRT 0.6 (degradant) [5, 18]: Not detected
- RRT 1.3 (degradant) [5, 18]: Not detected
- RRT 1.6 (degradant) [5, 18]: Not detected
- stable processing temperature limit ([5]; with polyurethanes, from Table 4 (co-extruded 7Fr single lumen)): at least 135 °C

Compound: CCCCCCCCCCCC(=O)O.NC(=NCCCCCCN=C(N)N=C(N)Nc1ccc(Cl)cc1)N=C(N)Nc1ccc(Cl)cc1 [CHDD, chlorhexidine dodecanoate]
- 4.289 peak (CHDD) ([6]; melt temp 132 °C (condition 1)): 100
- RRT 0.6 (degradant) ([6]; melt temp 132 °C (condition 1)): Non-detected
- RRT 1.3 (degradant) ([6]; melt temp 132 °C (condition 1)): Not detected
- RRT 1.6 (degradant) ([6]; melt temp 132 °C (condition 1)): Not detected
- 4.289 peak (CHDD) ([6]; melt temp 136 °C (condition 2)): 100
- RRT 0.6 (degradant) ([6]; melt temp 136 °C (condition 2)): Non-detected
- RRT 1.3 (degradant) ([6]; melt temp 136 °C (condition 2)): Not detected
- RRT 1.6 (degradant) ([6]; melt temp 136 °C (condition 2)): Not detected
- thermal degradation on melt processing (HPLC, FIG. 4) ([6]; compounded in low melt temperature Tecoflex-93A, melt temperature 137 °C, 280 nm): did not degrade
- stable processing temperature limit ([6]; with polyurethanes): at least 136 °C

Compound: [H]/N=C(\N/C(=N/[H])NCCCCCCNC(=N)NC(=N)Nc1ccc(Cl)cc1)Nc1ccc(Cl)cc1 [chlorhexidine]
- processing temperature at which thermally stable ([1]; with polyolefin thermoplastic elastomers (Versaflex CL30)): up to 161 °C
- processing temperature at which thermally stable ([3]; with vinyl polymers (PVC 60A & 85A)): ≤ 165 °C
